{
  "source": "patent US11931431B2",
  "about": "“PSMA-targeted radiopharmaceutical for diagnosing and treating prostate cancer” (FUTURECHEM CO., LTD, priority 2018, dated 2024)",
  "key": {"PSMA^+ PC-3 PIP tumors [1]": {"system": "PSMA^+ PC-3 PIP tumors", "experiment": "Biodistribution test with mice transplanted with prostate cancer cell lines (gamma counter)", "format": "in vivo, nude mouse", "details": "5 hours after injection", "experimental": "After 270 minutes of [^68Ga]1e and [^68Ga]1g injection, microPET/CT images were obtained for 30 minutes, and then each organ (blood, muscle, fat, heart, lung, liver, spleen, stomach, intestine, kidney, bone and tumor) was extracted and the radioactivity thereof was measured using a gamma counter."}, "[2]": {"experiment": "Measurement of lipophilicity (log P), n-octanol/PBS", "format": "physicochemical", "details": "mean of 3", "experimental": "Each of the [^68Ga]1 compounds (1˜2 mci) synthesized in Example 14 was transferred into a vial, and the solvent was removed, to which 1 mL of n-octanol and 1 mL of PBS were added, and the lid was well closed, followed by mixing with a vortex for 1 minute. After the layers were separated, 0.1 mL was taken from each layer and the radiation dose was measured. The radiation dose was measured by repeating 3 times, and the mean value was obtained."}, "PSMA^+ PC-3 PIP tumors [3]": {"system": "PSMA^+ PC-3 PIP tumors", "experiment": "MicroPET/CT imaging of mice transplanted with prostate cancer cell lines", "format": "in vivo, nude mouse", "experimental": "A tumor model was prepared by subcutaneously injecting PSMA^+ PC-3 PIP cells (a human prostate cancer cell line) to the right side of the nude mouse hind leg. Each of the ^68Ga-labeled compounds [^68Ga]1e, [^68Ga]1g, [^68Ga]1h and [^68Ga]1k was intravenously injected with 5.5 to 6.5 MBq (148-175 μCi/200 μL), and PET/CT images were obtained using small animal INVEON PET/CT (Siemens medical solutions, Knoxville, USA) for 60 minutes. After 150 minutes, 270 minutes, and 390 minutes, PET/CT images were also obtained for 30 minutes. The obtained PET/CT image results were quantitatively analyzed using Inveon™ Research Workplace (IRW).\nFIGS. 1, 2, 3, and 4 are graphs showing the quantitative analysis results of MicorPET/CT images for [^68Ga]1e, [^68Ga]1g, [^68Ga]1h, and [^68Ga]1k in % injected dose (ID)/g, and summarized in Tables 3, 4, 5, and 6, respectively."}},
  "data": [
    {"smiles": "Cc1ccc(CCCC(=O)NCCCCC(NC(=O)CN2CCN3CCN4CCN(CC2)CC(=O)[O][68Ga]([O]C(=O)C3)[O]C(=O)C4)C(=O)NCCOCCOCC(=O)N(CCCCC(NC(=O)NC(CCC(=O)O)C(=O)O)C(=O)O)CC(=O)O)cc1", "note": "(stereo not drawn) [[^68Ga]1g]", "values": [
      {"measurement": "tumor intake rate, times higher than that of [^68Ga]1e", "setting": "PSMA^+ PC-3 PIP tumors [1]", "value": "about 1.4 times"},
      {"measurement": "Radioactivity in mouse organ: Blood", "setting": "PSMA^+ PC-3 PIP tumors [1]; gamma counter", "value": "0.02 ± 0.03", "unit": "% ID/g"},
      {"measurement": "Radioactivity in mouse organ: Bone", "setting": "PSMA^+ PC-3 PIP tumors [1]; gamma counter", "value": "0.01 ± 0.01", "unit": "% ID/g"},
      {"measurement": "Radioactivity in mouse organ: Fat", "setting": "PSMA^+ PC-3 PIP tumors [1]; gamma counter", "value": "0.11 ± 0.15", "unit": "% ID/g"},
      {"measurement": "Radioactivity in mouse organ: Heart", "setting": "PSMA^+ PC-3 PIP tumors [1]; gamma counter", "value": "0.02 ± 0.01", "unit": "% ID/g"},
      {"measurement": "Radioactivity in mouse organ: Intestine", "setting": "PSMA^+ PC-3 PIP tumors [1]; gamma counter", "value": "0.09 ± 0.08", "unit": "% ID/g"},
      {"measurement": "Radioactivity in mouse organ: Kidney", "setting": "PSMA^+ PC-3 PIP tumors [1]; gamma counter", "value": "9.15 ± 11.26", "unit": "% ID/g"},
      {"measurement": "Radioactivity in mouse organ: Liver", "setting": "PSMA^+ PC-3 PIP tumors [1]; gamma counter", "value": "0.03 ± 0.01", "unit": "% ID/g"},
      {"measurement": "Radioactivity in mouse organ: Lung", "setting": "PSMA^+ PC-3 PIP tumors [1]; gamma counter", "value": "0.07 ± 0.07", "unit": "% ID/g"},
      {"measurement": "Radioactivity in mouse organ: Muscle", "setting": "PSMA^+ PC-3 PIP tumors [1]; gamma counter", "value": "0.01 ± 0.00", "unit": "% ID/g"},
      {"measurement": "Radioactivity in mouse organ: Spleen", "setting": "PSMA^+ PC-3 PIP tumors [1]; gamma counter", "value": "0.20 ± 0.27", "unit": "% ID/g"},
      {"measurement": "Radioactivity in mouse organ: Stomach", "setting": "PSMA^+ PC-3 PIP tumors [1]; gamma counter", "value": "0.02 ± 0.02", "unit": "% ID/g"},
      {"measurement": "logP", "setting": "[2]", "value": "−2.42"},
      {"measurement": "intake of mouse organ: Bladder", "setting": "PSMA^+ PC-3 PIP tumors [3]; 10 min after injection", "value": "2.28 ± 0.11", "unit": "% ID/g"},
      {"measurement": "intake of mouse organ: Kidney", "setting": "PSMA^+ PC-3 PIP tumors [3]; 10 min after injection", "value": "16.40 ± 0.10", "unit": "% ID/g"},
      {"measurement": "intake of mouse organ: Liver", "setting": "PSMA^+ PC-3 PIP tumors [3]; 10 min after injection", "value": "9.55 ± 2.22", "unit": "% ID/g"},
      {"measurement": "intake of mouse organ: Muscle", "setting": "PSMA^+ PC-3 PIP tumors [3]; 10 min after injection", "value": "1.49 ± 1.64", "unit": "% ID/g"},
      {"measurement": "intake of mouse organ: Tumor (PIP)", "setting": "PSMA^+ PC-3 PIP tumors [3]; 10 min after injection", "value": "2.18 ± 0.63", "unit": "% ID/g"},
      {"measurement": "intake of mouse organ: Bladder", "setting": "PSMA^+ PC-3 PIP tumors [3]; 20 min after injection", "value": "6.98 ± 2.51", "unit": "% ID/g"},
      {"measurement": "intake of mouse organ: Kidney", "setting": "PSMA^+ PC-3 PIP tumors [3]; 20 min after injection", "value": "19.80 ± 0.73", "unit": "% ID/g"},
      {"measurement": "intake of mouse organ: Liver", "setting": "PSMA^+ PC-3 PIP tumors [3]; 20 min after injection", "value": "7.26 ± 1.06", "unit": "% ID/g"},
      {"measurement": "intake of mouse organ: Muscle", "setting": "PSMA^+ PC-3 PIP tumors [3]; 20 min after injection", "value": "1.88 ± 2.00", "unit": "% ID/g"},
      {"measurement": "intake of mouse organ: Tumor (PIP)", "setting": "PSMA^+ PC-3 PIP tumors [3]; 20 min after injection", "value": "4.42 ± 1.50", "unit": "% ID/g"},
      {"measurement": "intake of mouse organ: Bladder", "setting": "PSMA^+ PC-3 PIP tumors [3]; 30 min after injection", "value": "13.51 ± 5.83", "unit": "% ID/g"},
      {"measurement": "intake of mouse organ: Kidney", "setting": "PSMA^+ PC-3 PIP tumors [3]; 30 min after injection", "value": "21.18 ± 2.17", "unit": "% ID/g"},
      {"measurement": "intake of mouse organ: Liver", "setting": "PSMA^+ PC-3 PIP tumors [3]; 30 min after injection", "value": "6.10 ± 0.50", "unit": "% ID/g"},
      {"measurement": "intake of mouse organ: Muscle", "setting": "PSMA^+ PC-3 PIP tumors [3]; 30 min after injection", "value": "1.69 ± 1.78", "unit": "% ID/g"},
      {"measurement": "intake of mouse organ: Tumor (PIP)", "setting": "PSMA^+ PC-3 PIP tumors [3]; 30 min after injection", "value": "5.43 ± 1.94", "unit": "% ID/g"},
      {"measurement": "intake of mouse organ: Bladder", "setting": "PSMA^+ PC-3 PIP tumors [3]; 40 min after injection", "value": "18.89 ± 8.84", "unit": "% ID/g"},
      {"measurement": "intake of mouse organ: Kidney", "setting": "PSMA^+ PC-3 PIP tumors [3]; 40 min after injection", "value": "22.74 ± 3.48", "unit": "% ID/g"},
      {"measurement": "intake of mouse organ: Liver", "setting": "PSMA^+ PC-3 PIP tumors [3]; 40 min after injection", "value": "5.38 ± 0.22", "unit": "% ID/g"},
      {"measurement": "intake of mouse organ: Muscle", "setting": "PSMA^+ PC-3 PIP tumors [3]; 40 min after injection", "value": "1.61 ± 1.69", "unit": "% ID/g"},
      {"measurement": "intake of mouse organ: Tumor (PIP)", "setting": "PSMA^+ PC-3 PIP tumors [3]; 40 min after injection", "value": "6.43 ± 2.32", "unit": "% ID/g"},
      {"measurement": "intake of mouse organ: Bladder", "setting": "PSMA^+ PC-3 PIP tumors [3]; 50 min after injection", "value": "22.76 ± 10.86", "unit": "% ID/g"},
      {"measurement": "intake of mouse organ: Kidney", "setting": "PSMA^+ PC-3 PIP tumors [3]; 50 min after injection", "value": "24.20 ± 4.60", "unit": "% ID/g"},
      {"measurement": "intake of mouse organ: Liver", "setting": "PSMA^+ PC-3 PIP tumors [3]; 50 min after injection", "value": "4.75 ± 0.07", "unit": "% ID/g"},
      {"measurement": "intake of mouse organ: Muscle", "setting": "PSMA^+ PC-3 PIP tumors [3]; 50 min after injection", "value": "1.54 ± 1.62", "unit": "% ID/g"},
      {"measurement": "intake of mouse organ: Tumor (PIP)", "setting": "PSMA^+ PC-3 PIP tumors [3]; 50 min after injection", "value": "7.33 ± 2.76", "unit": "% ID/g"},
      {"measurement": "intake of mouse organ: Bladder", "setting": "PSMA^+ PC-3 PIP tumors [3]; 60 min after injection", "value": "24.74 ± 11.23", "unit": "% ID/g"},
      {"measurement": "intake of mouse organ: Kidney", "setting": "PSMA^+ PC-3 PIP tumors [3]; 60 min after injection", "value": "25.78 ± 4.72", "unit": "% ID/g"},
      {"measurement": "intake of mouse organ: Liver", "setting": "PSMA^+ PC-3 PIP tumors [3]; 60 min after injection", "value": "4.41 ± 0.03", "unit": "% ID/g"},
      {"measurement": "intake of mouse organ: Muscle", "setting": "PSMA^+ PC-3 PIP tumors [3]; 60 min after injection", "value": "1.32 ± 1.33", "unit": "% ID/g"},
      {"measurement": "intake of mouse organ: Tumor (PIP)", "setting": "PSMA^+ PC-3 PIP tumors [3]; 60 min after injection", "value": "8.29 ± 2.99", "unit": "% ID/g"},
      {"measurement": "intake of mouse organ: Bladder", "setting": "PSMA^+ PC-3 PIP tumors [3]; 150 min after injection", "value": "42.3 ± 41.58", "unit": "% ID/g"},
      {"measurement": "intake of mouse organ: Kidney", "setting": "PSMA^+ PC-3 PIP tumors [3]; 150 min after injection", "value": "15.75 ± 11.53", "unit": "% ID/g"},
      {"measurement": "intake of mouse organ: Liver", "setting": "PSMA^+ PC-3 PIP tumors [3]; 150 min after injection", "value": "0.45 ± 0.11", "unit": "% ID/g"},
      {"measurement": "intake of mouse organ: Muscle", "setting": "PSMA^+ PC-3 PIP tumors [3]; 150 min after injection", "value": "0.21 ± 0.03", "unit": "% ID/g"},
      {"measurement": "intake of mouse organ: Tumor (PIP)", "setting": "PSMA^+ PC-3 PIP tumors [3]; 150 min after injection", "value": "11.4 ± 5.23", "unit": "% ID/g"},
      {"measurement": "intake of mouse organ: Bladder", "setting": "PSMA^+ PC-3 PIP tumors [3]; 270 min after injection", "value": "12.05 ± 2.76", "unit": "% ID/g"},
      {"measurement": "intake of mouse organ: Kidney", "setting": "PSMA^+ PC-3 PIP tumors [3]; 270 min after injection", "value": "12.45 ± 9.69", "unit": "% ID/g"},
      {"measurement": "intake of mouse organ: Liver", "setting": "PSMA^+ PC-3 PIP tumors [3]; 270 min after injection", "value": "0.22 ± 0.01", "unit": "% ID/g"},
      {"measurement": "intake of mouse organ: Muscle", "setting": "PSMA^+ PC-3 PIP tumors [3]; 270 min after injection", "value": "0.06 ± 0.02", "unit": "% ID/g"},
      {"measurement": "intake of mouse organ: Tumor (PIP)", "setting": "PSMA^+ PC-3 PIP tumors [3]; 270 min after injection", "value": "13.00±4.95", "unit": "% ID/g"},
      {"measurement": "tumor intake increase compared to [^68Ga]1e", "setting": "PSMA^+ PC-3 PIP tumors [3]; 270 minutes", "value": "about 3 times"},
      {"measurement": "excretion, in words", "setting": "PSMA^+ PC-3 PIP tumors [3]; MicroPET/CT", "value": "rapidly excreted out of the body"},
      {"measurement": "residence time in the blood, in words", "setting": "PSMA^+ PC-3 PIP tumors [3]; MicroPET/CT", "value": "residence time in the blood was increased"},
      {"measurement": "tumor intake over time, in words", "setting": "PSMA^+ PC-3 PIP tumors [3]; MicroPET/CT", "value": "tumor intake was increased over time"}
    ]}
  ]
}
